Laboratory results published in patent US12414969B2, “Methods and compositions for reducing clostridium difficile infection” (priority 2014, dated 2025).

Test system: C. difficile
Experiment: Addition of secondary bile acids to culture media, C. difficile growth
Conditions: bile acid added to culture media

`C[C@H](CCC(=O)O)[C@H]1CC[C@H]2[C@@H]3CC[C@@H]4C[C@H](O)CC[C@]4(C)[C@H]3C[C@H](O)[C@]12C` [DCA, deoxycholic acid] was tested, and the “C. difficile growth inhibition in culture media” value was “inhibits c. difficile growth”.
